Source: ChEMBL document CHEMBL1141830, “Stereoselective total synthesis of (3R,8S)-falcarindiol, a common polyacetylenic compound from umbellifers” (J Nat Prod, 1999)
Values after ≈ are worked out from the molar mass of the structure shown.

Key:
[1] = test system: Escherichia coli; experiment: Antimicrobial activity against Escherichia coli DC2; assay type: functional
[2] = test system: Staphylococcus aureus; experiment: Antimicrobial activity against methicillin-sensitive Staphylococcus aureus K147; assay type: functional
[3] = test system: Staphylococcus aureus; experiment: Antimicrobial activity against methicillin-resistant Staphylococcus aureus SAP0017; assay type: functional
[4] = test system: Bacillus subtilis; experiment: Antimicrobial activity against Bacillus subtilis Vernon; assay type: functional
[5] = Antiproliferative activity against human MK1 cells by MTT assay; assay type: cell-based; conditions: read-out: ED50 (the source's name)

`C=C[C@@H](O)C#CC#C[C@@H](O)/C=C\CCCCCCC` [FALCARINDIOL] gave an MIC [1] of 2.5 µg/mL (≈ 9.6 µM), an MIC [2] of 12.5 µg/mL (≈ 48 µM) and an MIC [3] of 25 µg/mL (≈ 96 µM). The MIC [4] was 12.5 µg/mL (≈ 48 µM) and the GI50 [5] was 3.2 µg/mL (≈ 12.3 µM).
